This is an account of results in patent publication US7576128B2 (priority 2004, dated 2009).

Where a chain is given by its changes, count along the chain named. pIC50: −log10 of the molar value. Like-named read-outs stand apart in the source and are kept apart here. Some results are limits rather than exact numbers.

One test concerns the target T1, androgen receptor (Homo sapiens, UniProt P10275).
T1 sequence (P10275 1-920 Q868H): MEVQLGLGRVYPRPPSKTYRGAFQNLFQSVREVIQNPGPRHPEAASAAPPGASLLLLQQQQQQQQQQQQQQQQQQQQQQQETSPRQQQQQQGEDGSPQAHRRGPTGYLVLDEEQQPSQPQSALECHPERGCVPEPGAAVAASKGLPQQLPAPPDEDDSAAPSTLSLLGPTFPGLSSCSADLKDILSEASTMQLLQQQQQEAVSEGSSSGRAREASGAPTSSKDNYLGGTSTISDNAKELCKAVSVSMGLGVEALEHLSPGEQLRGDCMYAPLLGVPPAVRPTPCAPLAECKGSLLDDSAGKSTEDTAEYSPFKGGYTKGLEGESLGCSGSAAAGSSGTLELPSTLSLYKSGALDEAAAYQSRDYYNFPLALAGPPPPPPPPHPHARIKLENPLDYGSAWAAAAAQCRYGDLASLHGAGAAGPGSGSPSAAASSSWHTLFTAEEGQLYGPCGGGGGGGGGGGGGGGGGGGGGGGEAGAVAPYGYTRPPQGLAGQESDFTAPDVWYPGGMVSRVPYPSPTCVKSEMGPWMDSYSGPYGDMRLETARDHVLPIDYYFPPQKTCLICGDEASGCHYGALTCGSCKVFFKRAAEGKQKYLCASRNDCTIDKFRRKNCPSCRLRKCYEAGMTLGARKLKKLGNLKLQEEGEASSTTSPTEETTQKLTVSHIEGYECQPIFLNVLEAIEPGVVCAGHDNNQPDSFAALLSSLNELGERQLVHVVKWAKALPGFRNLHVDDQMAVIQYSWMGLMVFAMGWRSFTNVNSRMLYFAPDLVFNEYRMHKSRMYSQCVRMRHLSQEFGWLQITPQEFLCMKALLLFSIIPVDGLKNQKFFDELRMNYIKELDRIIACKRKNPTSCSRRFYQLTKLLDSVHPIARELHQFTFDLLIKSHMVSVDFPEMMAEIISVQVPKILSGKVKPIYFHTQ
Description: AR antagonist cell assay, MDA-MB453-MMTV clone 54-19 luciferase reporter. It counts as cell-based. The method, then: The compounds ability to antagonize the effects of androgen on the androgen receptor were determined in a whole cell assay as described immediately below.
This cell line is a stable transfected cell line with MDA-MB453 cell background (a human breast tumor cell line expressing androgen receptor). A MMTV minimal promoter containing ARE was first cloned in front of a firefly luciferase reporter gene. Then the cascade was cloned into transfection vector pUV120puro. Electroporation method was used for transfecting MDA-MB-453 cell. Puromycin resistant stable cell line was selected.
• 1. Cells are maintained in culture medium, splitting cells when they reach 80-90% confluence • 2. To test compounds, 10,000 cells/well are plated to opaque 96 cell culture plate in 100 ul/well plating medium, culture for overnight at 37° C. in cell culture incubator • 3. Carefully remove plating medium, then add 80 ul/well of pre-warmed assay medium, add 10 ul/well testing compound (final concentration at) 1000 nM, 200 nM, 40 nM, 8 nM, 1.6 nM, and 0.32 nM), incubate at 37° C. for 30 minutes • 4. Add 10 ul/well freshly prepared DHT (final concentration at 100 pM) to each well, incubate at 37° C. for 17 hr (overnight) • 5.
The results are reported as the mean of multiple tests as described below (the numbers of tests are indicated in the footnote). N.D. denotes that the compound was not tested.
(In general: Reporter assays use an easily measured gene product as a stand-in for the process of interest.)

The target in test [1] is T2, hAR (human androgen receptor) (Homo sapiens, UniProt P10275).
T2 construct: made in house; host or cells: baculovirus/Sf9 insect cells
T2 sequence (P10275 1-920): T1 sequence (P10275 1-920 Q868H) with H868Q
The experiment in a line: Competitive binding analysis on baculovirus/Sf9 generated hAR extracts with 3H-DHT tracer. The method, then:
The description below describes how the assay was carried out.
Competitive binding analysis was performed on baculovirus/Sf9 generated hAR extracts in the presence or absence of different concentrations of test agent and a fixed concentration of ^3H-dihydrotestosterone (^3H-DHT) as tracer. This binding assay method is a modification of a protocol previously described (Liao S., et. al. J. Steroid Biochem. 20:11-17 1984). Briefly, progressively decreasing concentrations of compounds are incubated in the presence of hAR extract (Chang et al. P.N.A.S. Vol. 89, pp. 5546-5950,1992), hydroxylapatite, and 1 nM ^3 H-DHT for one hour at 4° C. Subsequently, the binding reactions are washed three times to completely remove excess unbound ^3 H-DHT. hAR bound ^3H-DHT levels are determined in the presence of compounds (=i.e competitive binding) and compared to levels bound when no competitor is present (=i.e. maximum binding). Compound binding affinity to the hAR is expressed as the concentration of compound at which one half of the maximum binding is inhibited.

The mark [2] stands for this setting: MDA-MB453-MMTV clone 54-19, 100 pM DHT, 17 hr; mean of multiple tests; read-out: AR Cell IC50.
The mark [3] stands for this setting: hAR extract, 1 nM 3H-DHT, one hour at 4° C., mean of multiple tests, read-out: AR Binding IC50.
The mark [4] stands for this setting: read-out: AR Cell IC50; MDA-MB453-MMTV clone 54-19, 100 pM DHT, 17 hr; mean of multiple tests.

For `N#Cc1ccc(OCCCCO)cc1C(F)(F)F` [Example 18, 4-(4-Hydroxy-butoxy)-2-tri-fluoromethyl-benzonitrile], the results for the pIC50 (at androgen receptor (setting [2]); in test [1] (read-out: AR Binding IC50)) were 6.40 and 7.13, respectively.

`CCCC(CCCO)Oc1ccc(C#N)c(C(F)(F)F)c1` (stereo not drawn) [Example 21, 4-(4-Hydroxy-1-pro-pyl-butoxy)-2-tri-fluoromethyl-benzonitrile]: the pIC50 (commonly −log10 of the IC50, conventionally taken in molar units) in test [1] (read-out: AR Binding IC50) is 6.09. The same measure, in the same setting: the result for `N#Cc1ccc(OCCCCO)cc1Cl` [Example 30, 2-Chloro-4-(4-hydroxy-butoxy)-benzonitrile] reads 7.00. On to `C[C@H](C[C@@H](C)O)Oc1ccc(C#N)c(C(F)(F)F)c1` [Example 17, (1R,3R)-4-(3-Hy-droxy-1-methyl-butoxy)-2-tri-fluoromethyl-benzonitrile], for which the pIC50 is 6.09 at androgen receptor (setting [2]) and 6.97 in test [1]. For `C[C@H](O)CCOc1ccc(C#N)c(C(F)(F)F)c1` [Example 8, (3S)-4-(3-Hydroxy-butoxy)-2-tri-fluoromethyl-benzonitrile], the values for the pIC50 (on androgen receptor (setting [2]); in test [1] (setting [3])) were below 6.00 and 6.67, respectively. As to `CC(C)CCCC(O)COc1ccc(C#N)c(C(F)(F)F)c1` (stereo not drawn) [Example 4, 4-(2-Hydroxy-6-methyl-heptyloxy)-2-tri-fluoromethyl-benzonitrile], the figures for the pIC50 (on androgen receptor (setting [2]); in test [1] (setting [3])) were below 6.00 and 6.35, respectively. As to `CC(O)CCCCOc1ccc(C#N)c(C(F)(F)F)c1` (stereo not drawn) [Example 25, 4-(5-Hydroxy-hexyloxy)-2-tri-fluoromethyl-benzonitrile], the pIC50 is 6.08 on androgen receptor (setting [2]) and 6.30 in test [1] (setting [3]). Consider `CCCC(O)CCCOc1ccc(C#N)c(C(F)(F)F)c1` (stereo not drawn) [Example 20, 4-(4-Hydroxy-heptyloxy)-2-tri-fluoromethyl-benzontrile], for which the values for the pIC50 (at androgen receptor (setting [2]); in test [1] (setting [3])) were 6.30 and 6.61, respectively. On to `CC(O)CCC(C)Oc1ccc(C#N)c(Cl)c1` (stereo not drawn) [Example 28, 2-Chloro-4-(4-hydroxy-1-methyl-pentyloxy)-benzonitrile], for which the pIC50 was 6.58 on androgen receptor (setting [2]) and 7.31 in test [1] (read-out: AR Binding IC50). As to `CC(CCO)CCOc1ccc(C#N)c(C(F)(F)F)c1` (stereo not drawn) [Example 26, 4-(5-Hydroxy-3-meth-yl-pentyloxy)-2-tri-fluoromethyl-benzonitrile], the negative logarithm of the IC50 (pIC50) in test [1] (read-out: AR Binding IC50) is 6.11. With `C[C@H](O)C[C@H](C)Oc1ccc(C#N)c(C(F)(F)F)c1` [Example 16, (1S,3S)-4-(3-Hy-droxy-1-methyl-bu-toxy)-2-tri-fluoromethyl-benzonitrile], the pIC50 was below 6.00 on androgen receptor (setting [2]) and 8.22 in test [1]. Regarding `CC(O)C(C)COc1ccc(C#N)c(C(F)(F)F)c1` (stereo not drawn) [Example 10, 4-(3-Hydroxy-2-meth-yl-butoxy)-2-tri-fluoromethyl-benzonitrile], the negative logarithm of the IC50 (pIC50) was 6.56 on androgen receptor (setting [2]) and 7.15 in test [1] (read-out: AR Binding IC50).

As for `C=CCCCCC(O)COc1ccc(C#N)c(C(F)(F)F)c1` (stereo not drawn) [Example 6, 4-(2-Hydroxy-oct-7-enyl-oxy)-2-tri-fluoromethyl-benzonitrile], the pIC50 at androgen receptor (setting [2]) was 6.18; in test [1] (setting [3]), 6.38. `CCCC(O)C(CC)COc1ccc(C#N)c(C(F)(F)F)c1` (stereo not drawn) [Example 14, 4-(2-Ethyl-3-Hy-droxy-hexyl-oxy)-2-tri-fluoromethyl-benzonitrile]: the values for the pIC50 (at androgen receptor (setting [2]); in test [1] (setting [3])) were 6.10 and 6.59, respectively. For the compound `N#Cc1ccc(OCCCO)cc1Cl` [Example 29, 2-Chloro-4-(3-hydroxy-propoxy)-benzonitrile], the pIC50 in test [1] (read-out: AR Binding IC50) is 6.40. For the compound `C=CC(CO)Oc1ccc(C#N)c(Cl)c1` (stereo not drawn) [Example 31, 2-Chloro-4-(1-hydroxymethyl-allyloxy)-benzonitrile], the pIC50 in test [1] (setting [3]) was 6.81. As to `N#Cc1ccc(OCCCCCO)cc1C(F)(F)F` [Example 24, 4-(5-Hydroxy-pentyloxy)-2-tri-fluoromethyl-benzonitrile], the results for the pIC50 (on androgen receptor (setting [2]); in test [1] (setting [3])) were below 6.00 and 6.20, respectively. `CC(C)C(O)C(C)(C)COc1ccc(C#N)c(C(F)(F)F)c1` (stereo not drawn) [Example 13, 4-(3-Hydroxy-2,2,4-tri-methyl-pentyloxy)-2-tri-fluoromethyl-benzonitrile]: the pIC50 in test [1] (setting [3]) was 6.35. For the compound `CCCCCCC(O)COc1ccc(C#N)c(C(F)(F)F)c1` (stereo not drawn) [Example 5, 4-(2-Hydroxy-octyloxy)-2-tri-fluoromethyl-benzonitrile], the figures for the pIC50 (on androgen receptor (setting [2]); in test [1] (read-out: AR Binding IC50)) were 6.29 and 7.49, respectively.

As to `C=CCC(O)CCOc1ccc(C#N)c(C(F)(F)F)c1` (stereo not drawn) [Example 9, 4-(3-Hydroxy-hex-5-enyl-oxy)-2tri-fluoromethyl-benzonitrile], the pIC50 in test [1] (setting [3]) was 6.57. `CC(O)CCCOc1ccc(C#N)c(C(F)(F)F)c1` (stereo not drawn) [Example 19]: the negative logarithm of the IC50 (pIC50) at androgen receptor (setting [4]) was below 6.00; in test [1] (read-out: AR Binding IC50) it was 6.30.

In the case of `CC(C)(CO)COc1ccc(C#N)c(C(F)(F)F)c1` [Example 11, 4-(3-Hydroxy-2,2-di-methyl-propoxy)-2-tri-fluoromethyl-benzonitrile], in test [1] (setting [3]), the pIC50 was 6.15. In the case of `CC(C)(O)CCOc1ccc(C#N)c(C(F)(F)F)c1` [Example 12, 4-(3-Hydroxy-3-meth-yl-butoxy)-2-tri-fluoromethyl-benzonitrile], the pIC50 is 6.57 at androgen receptor (setting [2]) and 7.57 in test [1] (read-out: AR Binding IC50). For `CC(O)CCOc1ccc(C#N)c(C(F)(F)F)c1` (stereo not drawn) [Example 7, 4-(3-Hydroxy-butoxy)-2-tri-fluoromethyl-benzonitrile], the pIC50 was below 6.00 at androgen receptor (setting [2]) and 6.56 in test [1] (setting [3]).

As for `CC(O)CCC(C)Oc1ccc(C#N)c(C(F)(F)F)c1` (stereo not drawn) [Example 22, 4-(4-Hydroxy-1-meth-yl-pentyloxy)-2-tri-fluoromethyl-benzonitrile], the pIC50 at androgen receptor (setting [4]) is below 6.00; in test [1] (setting [3]), 6.73.
